Patent publication US20250129055A1, “GLUCOSIDE DERIVATIVE, AND PREPARATION METHOD THEREFOR AND APPLICATION THEREOF” (BEIJING INCREASE INNOVATIVE DRUG CO., LTD., priority 2020, published 2025)
Where two headings read alike, the source gives them in different places.

How the values were obtained:
mice = settings: for Death rate (%): 7 days
Protocol: Test Example 5 Research on Safety of the Compounds of the Present Invention
The compounds of the present invention were subjected to the following acute toxicity studies in mice.
The symptoms of toxicity reaction and death time were recorded.
On the day before administration, the animals were fasted but provided with water for 17 h. Each test drug group was administered with the corresponding test drug once by gavage, and the blank control group was administered with the same dose of vehicle once by gavage.

normal ICR mice = test: Blood glucose level of normal mice after oral administration of glucose; assay type: in vivo; settings: for Blood glucose 0 min: 0 min (fasting, 1 h after dosing); for Blood glucose 30 min: 30 min after glucose 2.0 g/kg; for Blood glucose 60 min: 60 min after glucose 2.0 g/kg; for Blood glucose 120 min: 120 min after glucose 2.0 g/kg; for AUC of blood glucose: oral glucose 2.0 g/kg; for Reduction of the area under the curve (AUC) of blood glucose: vs. normal control group
Protocol: Test Example 2 Evaluation of the in vivo activity of the compounds of the present invention: the effect on the blood glucose level of normal mice after oral administration of glucose
ICR mice (male, 18-20 g), purchased from Beijing Vital River Laboratories Co., Ltd., were fed adaptively for 4 days, and randomly divided into 4 groups, namely normal control group, positive control group, and two groups of test compounds, with 8 mice in each group.
The aforementioned stock solutions were diluted to appropriate concentrations with double distilled water.
The mice were fasted overnight. […] After 1 h, blood was collected at 0 min (fasting), and then mice in each group were administered with glucose (2.0 g/kg) solution by gavage. Blood was collected at 30 min, 60 min, and 120 min after glucose administration. The blood glucose level was measured using glucose oxidase-peroxidase method, and the area under the blood glucose curve was calculated.
The data were expressed as mean±SD. The comparison between multiple groups was performed by one-way analysis of variance, and the comparison between two groups was performed by Dunnett's t test. Statistical graphing was performed using Graphpad Prism software.

SGLT2 = SGLT2 (Homo sapiens (Human), UniProt P31639); test: In vitro SGLT2 inhibitory activity: 1-NBDG uptake by CHO-SGLT2 cells; assay type: cell-based; settings: for inhibition at 10 pM: compound concentration 1 × 10^−11 mol/L; for inhibition at 1 pM: compound concentration 1 × 10^−12 mol/L; for inhibition at 0.005 µM: compound concentration 5 × 10^−9 mol/L; for inhibition at 0.0005 µM: compound concentration 5 × 10^−10 mol/L; for inhibition at 50 pM: compound concentration 5 × 10^−11 mol/L
Protocol: The effect of the compounds on SGLT2-mediated glucose uptake was investigated by establishing an SGLT2 overexpression cell model and using the fluorescent glucose (2-deoxy-1-[(7-nitro-2,1,3-benzoxadiazol-4-yl)amino]-D-glucose, 1-NBDG) tracer method to screen out candidate compounds with SGLT2 inhibitory activity.
The humanized SGLT2 overexpression cells (CHO-SGLT2) constructed from Chinese hamster ovary (CHO) cells were cultured in 1640 medium (Gibco) containing 10% fetal bovine serum (Gibco, 10270), subcultured at a ratio of 1:3, and replaced with new culture medium 3 times every week. Fluorescence detection cell culture plates and other culture flasks were purchased from Corning Company. […] Appropriate amounts of all compounds were weighed, prepared into 100 mM stock solutions with DMSO, and stored at 4° C. in the dark.
Before the 1-NBDG uptake test, CHO-SGLT2 cells were digested and seeded in a 96-well cell culture plate with a cell number of 40,000/well. After the cells were cultured for 48 h, the medium was discarded, and 100 μl of choline buffer was added to each well. After the cells were starved at 37° C. for 30 min, the choline buffer was discarded and 100 μl of the newly prepared Na^+ sodium buffer containing […] 1-NBDG and the test compounds (Compound) was added. The solvent DMSO was used as the negative control (Control) for the test compounds.
The Na^+ sodium buffer without 1-NBDG was used as the blank control (Blank). After 1 h of culture, the incubation solution was discarded. The cells were washed with choline buffer solution 3 times, and then 50 μl of neutral lysate was added to each well to lyse the cells on ice for 10 min. The fluorescence value of each well was detected using a multi-functional microplate reader at […].
At least 3 experimental replicates were set for each compound at indicated concentrations, and the data were expressed as mean±SEM. Uptake amount of 1-NBDG by cells=fluorescence value1-NBDG-fluorescence valueBlank. Inhibition rate on uptake amount of SGLT2 glucose (%)=(uptake amountcontrol−uptake amountcompound)/uptake amountcontrol×100%. Concentration-inhibition rate curves were plotted using Graphpad Prism software, and IC50 values were calculated accordingly.

[1] = read-out: Inhibition rate of compounds on SGLT2 (%)

SGLT2, sequence (P31639 whole entry): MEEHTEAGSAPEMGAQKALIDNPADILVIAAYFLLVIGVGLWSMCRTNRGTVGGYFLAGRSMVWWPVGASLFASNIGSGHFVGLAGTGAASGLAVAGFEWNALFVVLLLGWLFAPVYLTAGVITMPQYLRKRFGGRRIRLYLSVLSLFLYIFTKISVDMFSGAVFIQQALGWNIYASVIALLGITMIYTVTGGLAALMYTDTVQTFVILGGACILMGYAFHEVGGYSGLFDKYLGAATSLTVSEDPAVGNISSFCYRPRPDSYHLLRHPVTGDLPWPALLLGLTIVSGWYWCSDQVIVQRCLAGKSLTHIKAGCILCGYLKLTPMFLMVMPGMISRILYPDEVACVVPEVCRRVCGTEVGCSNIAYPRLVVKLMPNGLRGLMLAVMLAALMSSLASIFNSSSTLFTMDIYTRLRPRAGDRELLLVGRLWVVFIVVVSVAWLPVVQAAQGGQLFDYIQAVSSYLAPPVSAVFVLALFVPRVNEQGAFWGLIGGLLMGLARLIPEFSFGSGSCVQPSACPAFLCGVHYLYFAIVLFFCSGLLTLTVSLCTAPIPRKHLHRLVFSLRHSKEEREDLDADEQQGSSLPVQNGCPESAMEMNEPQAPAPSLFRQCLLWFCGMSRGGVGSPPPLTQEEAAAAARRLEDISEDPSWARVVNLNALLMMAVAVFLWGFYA

CCOc1ccc(Cc2cc([C@@H]3O[C@H](CO)[C@@H](O)[C@H](O)[C@H]3O)ccc2Cl)cc1 [Dapagliflozin, reference compound]
Death rate (%) (mice; female, 3000 mg/kg once by gavage): 0%
Deaths D 1 (mice; female, 3000 mg/kg once by gavage, day 1): 0
Deaths D 2 (mice; female, 3000 mg/kg once by gavage, day 2): 0
Deaths D 3 (mice; female, 3000 mg/kg once by gavage, day 3): 0
Deaths D 4 (mice; female, 3000 mg/kg once by gavage, day 4): 0
Deaths D 5 (mice; female, 3000 mg/kg once by gavage, day 5): 0
Deaths D 6 (mice; female, 3000 mg/kg once by gavage, day 6): 0
Deaths D 7 (mice; female, 3000 mg/kg once by gavage, day 7): 0
Death rate (%) (mice; male, 3000 mg/kg once by gavage): 80%
Deaths D 1 (mice; male, 3000 mg/kg once by gavage, day 1): 0
Deaths D 2 (mice; male, 3000 mg/kg once by gavage, day 2): 0
Deaths D 3 (mice; male, 3000 mg/kg once by gavage, day 3): 1
Deaths D 4 (mice; male, 3000 mg/kg once by gavage, day 4): 1
Deaths D 5 (mice; male, 3000 mg/kg once by gavage, day 5): 0
Deaths D 6 (mice; male, 3000 mg/kg once by gavage, day 6): 2
Deaths D 7 (mice; male, 3000 mg/kg once by gavage, day 7): 0
Blood glucose 0 min (normal ICR mice; 2 mg/kg by gavage): 71.8 ± 6.6 mg/dL
Blood glucose 30 min (normal ICR mice; 2 mg/kg by gavage): 213.2 ± 26.6 mg/dL
Blood glucose 60 min (normal ICR mice; 2 mg/kg by gavage): 122.2 ± 16.1 mg/dL
Blood glucose 120 min (normal ICR mice; 2 mg/kg by gavage): 83.0 ± 13.5 mg/dL
AUC of blood glucose (normal ICR mice; 2 mg/kg by gavage): 257.7 ± 24.0 mg·h/dL
Reduction of the area under the curve (AUC) of blood glucose (normal ICR mice; 2 mg/kg): 35.2%
inhibition at 10 µM (SGLT2; compound concentration 1 × 10^−5 mol/L, read-out: Inhibition rate of compounds on SGLT2 (%)): 106 ± 4.2%
inhibition at 10 pM (SGLT2; [1]): 1.9 ± 9.2%
inhibition at 1 pM (SGLT2; [1]): 6.8 ± 5.9%
inhibition at 0.05 µM (SGLT2; compound concentration 5 × 10^−8 mol/L, read-out: Inhibition rate of compounds on SGLT2 (%)): 84.3 ± 4%
inhibition at 0.005 µM (SGLT2; [1]): 84.8 ± 3.2%
inhibition at 0.0005 µM (SGLT2; [1]): 60.1 ± 2%
inhibition at 50 pM (SGLT2; [1]): 42 ± 2.8%

CS[C@H]1O[C@@H](c2ccc(C)c(Cc3ccc4c(c3)OCCO4)c2)[C@H](O)[C@@H](O)[C@@H]1O (stereo in doubt) [Compound 2, 2-[3-(2,3-dihydro-1,4-benzodioxin-6-ylmethyl)-4-methylphenyl]-6-(methylthio)oxane-3,4,5-triol]
Deaths D 1 (mice; female, mouse, in vivo, 3000 mg/kg, 1 day): 0
Deaths D 2 (mice; female, mouse, in vivo, 3000 mg/kg, 2 day): 0
Deaths D 3 (mice; female, mouse, in vivo, 3000 mg/kg, 3 day): 0
Deaths D 4 (mice; female, mouse, in vivo, 3000 mg/kg, 4 day): 0
Deaths D 5 (mice; female, mouse, in vivo, 3000 mg/kg, 5 day): 0
Deaths D 6 (mice; female, mouse, in vivo, 3000 mg/kg, 6 day): 0
Deaths D 7 (mice; female, mouse, in vivo, 3000 mg/kg, 7 day): 0
Death rate (%) (mice; female, mouse, in vivo, 3000 mg/kg): 0%
Deaths D 1 (mice; male, mouse, in vivo, 3000 mg/kg, 1 day): 0
Deaths D 2 (mice; male, mouse, in vivo, 3000 mg/kg, 2 day): 0
Deaths D 3 (mice; male, mouse, in vivo, 3000 mg/kg, 3 day): 0
Deaths D 4 (mice; male, mouse, in vivo, 3000 mg/kg, 4 day): 1
Deaths D 5 (mice; male, mouse, in vivo, 3000 mg/kg, 5 day): 0
Deaths D 6 (mice; male, mouse, in vivo, 3000 mg/kg, 6 day): 1
Deaths D 7 (mice; male, mouse, in vivo, 3000 mg/kg, 7 day): 0
Death rate (%) (mice; male, mouse, in vivo, 3000 mg/kg): 40%
Blood glucose 0 min (normal ICR mice; 2 mg/kg by gavage): 75.9 ± 6.7 mg/dL
Blood glucose 30 min (normal ICR mice; 2 mg/kg by gavage): 207.8 ± 13.6 mg/dL
Blood glucose 60 min (normal ICR mice; 2 mg/kg by gavage): 119.3 ± 12.5 mg/dL
Blood glucose 120 min (normal ICR mice; 2 mg/kg by gavage): 73.0 ± 11.4 mg/dL
AUC of blood glucose (normal ICR mice; 2 mg/kg by gavage): 248.8 ± 18.0 mg·h/dL
Reduction of the area under the curve (AUC) of blood glucose (normal ICR mice; 2 mg/kg): 37.4%
Blood glucose 0 min (normal ICR mice; 4 mg/kg by gavage): 63.6 ± 8.3 mg/dL
Blood glucose 30 min (normal ICR mice; 4 mg/kg by gavage): 189.5 ± 14.3 mg/dL
Blood glucose 60 min (normal ICR mice; 4 mg/kg by gavage): 103.2 ± 5.1 mg/dL
Blood glucose 120 min (normal ICR mice; 4 mg/kg by gavage): 78.2 ± 13.9 mg/dL
AUC of blood glucose (normal ICR mice; 4 mg/kg by gavage): 227.1 ± 13.1 mg·h/dL
Reduction of the area under the curve (AUC) of blood glucose (normal ICR mice; 4 mg/kg): 42.9%
IC50 (SGLT2; CHO-SGLT2 cells, 1-NBDG uptake, read-out: IC50 inhibiting SGLT2): 105 pM
inhibition at 1 µM (SGLT2; compound concentration 1 × 10^−6 mol/L, read-out: Inhibition rate of compounds on SGLT2 (%)): 107 ± 1.1%
inhibition at 0.0001 µM (SGLT2; compound concentration 1 × 10^−10 mol/L, read-out: Inhibition rate of compounds on SGLT2 (%)): 40.6 ± 1%
inhibition at 10 pM (SGLT2; [1]): 0%
inhibition at 1 pM (SGLT2; [1]): 0.3 ± 6.4%
inhibition at 0.5 µM (SGLT2; compound concentration 5 × 10^−7 mol/L, read-out: Inhibition rate of compounds on SGLT2 (%)): 81.6 ± 2.5%
inhibition at 0.005 µM (SGLT2; [1]): 80.7 ± 3%
inhibition at 0.0005 µM (SGLT2; [1]): 61.9 ± 3.6%
inhibition at 50 pM (SGLT2; [1]): 39.2 ± 2.1%
